According to patent US6924092B1, “Screening method involving MGDG synthase” (Commissariat a L'Energie Atomique, priority 1999, dated 2005):

Key:
[1] = target: T1, rMGD A (overexpressed spinach MGDG synthase) (Spinacia oleracea, UniProt Q9SM44); assay: Galactosylation activity of partially purified recombinant MGDG synthase (rMGD A), measured with micelles and UDP-[14C]gal; assay type: biochemical; conditions: for Inhibition of rMGD A activity (in words): overexpressed rMGD A; for activity at 150 µM: 150 μM NEM 10 min, % of control
T1 construct: Two mature forms of MGDG synthase are overexpressed in E. coli; additional initiation methionine (N); made in house; host or cells: E. coli BL21(DE3), plasmid pET-Y 3a; solubilised with CHAPS and partially purified on hydroxyapatite
T1 sequence (Q9SM44 99-522): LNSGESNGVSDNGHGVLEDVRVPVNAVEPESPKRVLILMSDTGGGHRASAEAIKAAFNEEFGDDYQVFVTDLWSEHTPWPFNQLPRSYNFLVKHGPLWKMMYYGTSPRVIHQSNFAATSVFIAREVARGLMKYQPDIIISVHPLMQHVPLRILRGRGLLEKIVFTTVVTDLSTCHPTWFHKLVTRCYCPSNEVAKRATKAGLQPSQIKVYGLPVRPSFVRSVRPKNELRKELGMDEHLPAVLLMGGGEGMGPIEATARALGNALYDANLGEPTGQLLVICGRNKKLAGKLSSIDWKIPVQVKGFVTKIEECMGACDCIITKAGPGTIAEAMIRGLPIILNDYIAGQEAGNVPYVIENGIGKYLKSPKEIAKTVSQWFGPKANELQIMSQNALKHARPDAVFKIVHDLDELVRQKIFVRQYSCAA
Protocol: The activity of the MGDG synthase is measured on various types of sample, depending on the model chosen: plastidial membrane, membrane fractions of E. coli overexpressing a recombinant MGDG synthase (rMGD A, 0.7 μg protein/assay, enzyme extracted beforehand from a plant (see Example 1)).
1.3 mM of phosphatidylglycerol (PG) and 160 μM of diacylglycerol (DAG) are dissolved in chloroform. After evaporating the solvent under argon, 200 μl of incubation medium containing 50 mM of MOPS-NaOH, pH 7.8, 4.5 mM OF CHAPS, 1 mM of DTT, 250 mM of KH2PO4/K2HPO4 and 250 mM of KCl are added and the medium is mixed vigorously so as to resuspend the lipids. 100 μl of fractions containing the MGDG synthase, in the incubation medium, are introduced then the medium is again mixed vigorously and then maintained at 20° C. for 1 h.
The reaction in the incubation mixture is then initiated by adding 1 mM of UDP-[^14C]gal (37 Bq/μmol). After 10 min to 1 h, the reaction is stopped by adding a chloroform/methanol mixture (1:2, v/v), the lipids are extracted in accordance with the method of Bligh et al (Can. J. Biochem. Physiol, 1959, 37, 911-917) and the radioactivity of the labeled galactolipids is determined by liquid scintillation counting as described in Covès et al. (FEBS lett., 1986, 208, 401-406). The activity is expressed in μmol of galactose incorporated/h/mg of protein.
The fractions of partially purified rMGD A are desalified by chromatography on a Biogel P6-DG (Bio-Rad) column (Pharmacia, C10/40 column, 30 ml of gel) equilibrated in DTT. Aliquots (200 μl) of the fractions are incubated for 40 minutes at 25° C. with gentle stirring, in the presence or absence of DTT. The galactosylation activity is then measured as specified above (see Example 3).
In order to obtain the results summarized in Table II, the rMGD A is desalified by chromatography on a Biogel P6-DG (Bio-Rad) column (Pharmacia, C10/40, column, 30 ml of gel) equilibrated in DTT. Aliquots (200 μl) of the fractions are incubated for 30 minutes at 25° C. with gentle stirring, followed by a 10 min incubation in the presence or absence of 150 μM NEM and then a 10 min incubation in the presence or absence of DTT. The galactosilyation activity is then measured as specified above (see Example 3).

[2] = target: T2, MGDG synthase partially purified from spinach leaf chloroplasts (Spinacia oleracea, UniProt Q9SM44); conditions: chloroplast envelope enzyme, Maréchal et al., J. Biol. Chem., 1995; cited from earlier work
T2 construct: the MGDG synthase partially purified from spinach leaf chloroplasts; host or cells: spinach leaf chloroplasts (envelope membranes)
T2 sequence (Q9SM44 99-522): T1 sequence (Q9SM44 99-522)

Activity (%) ([1]; with orthophenanthroline, no other additions, initial activity (time 0) = 100) | Activity (%) ([1]; with orthophenanthroline, other addition PG, initial activity (time 0) = 100) | Activity (%) ([1]; with orthophenanthroline, other addition UDP-gal, initial activity (time 0) = 100) | Activity (%) ([1]; with orthophenanthroline, other additions PG + DAG, initial activity (time 0) = 100) | Effect of DTT on rMGD A activity after desalification (in words) ([1]; DTT removed on Biogel P6-DG column, DTT added back) | Activity (%) ([1]; desalified hydroxyapatite fraction + 1 mM DTT, 40 min at 25° C., percentage of the control (not desalified) activity) | Activity (%) ([1]; desalified hydroxyapatite fraction + 10 mM DTT, 40 min at 25° C., percentage of the control (not desalified) activity) | activity at 10000 µM ([1]; desalified rMGD A, pre-incubation 30 min without addition, no NEM, then 10 mM DTT 10 min, % of control (50 min in 10 mM DTT)) [%] | SMILES | Inhibition of rMGD A activity (in words) [1] | Inhibition of the enzyme (in words) [2] | Protection of enzyme activity against oxidation (in words) [2] | activity at 150 µM ([1]; pre-incubation 30 min with DTT, no further DTT incubation, reaction + PG + DAG + UDP-gal) [%] | activity at 150 µM ([1]; pre-incubation 30 min with PG + DAG, then 10 mM DTT 10 min, reaction + UDP-gal) [%] | activity at 150 µM ([1]; pre-incubation 30 min with PG, then 10 mM DTT 10 min, reaction + DAG + UDP-gal) [%] | activity at 150 µM ([1]; pre-incubation 30 min with UDP-gal, then 10 mM DTT 10 min, reaction + PG + DAG) [%] | activity at 150 µM ([1]; pre-incubation 30 min without addition, then 10 mM DTT 10 min, reaction + PG + DAG + UDP-gal) [%]
43 | 27 | 17 | 92 |  |  |  |  | c1cnc2c(c1)ccc1cccnc12 [orthophenanthroline] | inhibited | powerful inhibitors |  |  |  |  |  | 
 |  |  |  | maintains its activity | 75 | 65 | 101 | O[C@H](CS)[C@H](O)CS (racemic) [DTT, dithiothreitol] |  |  | can protect the activity of the enzyme against oxidation |  |  |  |  | 
 |  |  |  |  |  |  |  | CCN1C(=O)C=CC1=O [NEM, N-ethylmaleimide] | very sensitive | powerful inhibitors |  | 108 | 60 | 56 | 32 | 35
